In patent US9597407B2, “Targeted antimicrobial moieties” (C3 Jian, Inc., priority 2009, dated 2017):
“Also recorded” adds a separate entry of the source.

Key:
bacteria = test: Binding of targeting peptides to microorganisms (Table 3); details: preferably 1x PBS; for Target(s) (microorganism bound by the targeting peptide) / Target(s) (microorganisms bound by the targeting peptide): peptide binding in aqueous buffers that varied depending on peptide solubility
microorganisms = test: Morphology, biofilm and growth disruption by peptides (Table 5); format: cell-based; parameters: key: A: Peptide aggregates; B: Less hyphal formation; Clumps; Diffuse clumps and small polyps; F: Diffuse growth; H: Thin; I: Growth inhibition; Microcolony formation; Rippled; Small polyps; Thick; W: Halo formation on top, microlonies on bottom
Description: In certain embodiments peptides that induce alterations in phenotype or other biological activities can also be used as antimicrobial effector moieties.

[1] = microorganism bound by the targeting peptide, binding in aqueous buffers chosen by peptide solubility

PF-664 (chain 1 DQLCVEYPARVSTG; chain 2 DQLCVEYPARVSTG; Peptide with targeting and/or antimicrobial activity)
Target(s) (microorganism bound by the targeting peptide) (bacteria): M. smegmatis
Organism, effect (morphology, biofilm and growth disruption) (microorganisms; E. faecalis): E. faecalis (R)
Organism, effect (morphology, biofilm and growth disruption) (microorganisms; MRSA): MRSA (R)
Organism, effect (morphology, biofilm and growth disruption) (microorganisms; S. epidermidis): S. epidermidis (M)
Organism, effect (morphology, biofilm and growth disruption) (microorganisms; S. pneumoniae): S. pneumoniae (M)

PF-191 (QFCNFAWLFLASNNAQVSALA; Peptide with targeting and/or antimicrobial activity)
Target(s) (bacteria; [1]): E. coli; also recorded: P. aeruginosa; also recorded: C. jejuni
Organism, effect (microorganisms; C. jeikeium): C. jeikeium (R)
Organism, effect (microorganisms; MRSA): MRSA (H)
Organism, effect (microorganisms; S. epidermidis): S. epidermidis (A)

PF-156 (LITAEQPATAPIAGK; Peptide with targeting and/or antimicrobial activity)
Target(s) (bacteria; [1]): S. epidermidis; also recorded: C. jeikeium
Organism, effect (microorganisms; MRSA): MRSA (H)

PF-609 (TEIKLDNNEYLVLNLDDILGILK; Peptide with targeting and/or antimicrobial activity)
Target(s) (microorganism bound by the targeting peptide) (bacteria): P. mirabilis; also recorded: E. coli; also recorded: S. pneumoniae
Organism, effect (morphology, biofilm and growth disruption) (microorganisms; C. jejuni): C. jejuni (R)
Organism, effect (morphology, biofilm and growth disruption) (microorganisms; E. faecalis): E. faecalis (A)
Organism, effect (morphology, biofilm and growth disruption) (microorganisms; MRSA): MRSA (C)
Organism, effect (morphology, biofilm and growth disruption) (microorganisms; S. pneumoniae): S. pneumoniae (R)

PF-135 (PPARPARIPQTPTLHGASLFRQRS; Peptide with targeting and/or antimicrobial activity)
Target(s) (bacteria; [1]): S. epidermidis and M. luteus and E. coli and P. aeruginosa and MRSA and C. jeikeium and M. smegmatis
Organism, effect (microorganisms; C. jeikeium): C. jeikeium (R)

NYAVVSHT [PF-209]
Target(s) (bacteria; [1]): C. albicans; also recorded: C. jeikeium; also recorded: C. jejuni
Organism, effect (microorganisms; MRSA): MRSA (I)
Organism, effect (microorganisms; P. aeruginosa): P. aeruginosa (H)
Organism, effect (microorganisms; S. epidermidis): S. epidermidis (C)

PF-693 (chain 1 PDPAR; chain 2 PDPAR; Peptide with targeting and/or antimicrobial activity)
Target(s) (microorganism bound by the targeting peptide) (bacteria): Mycobacteria spp
Organism, effect (morphology, biofilm and growth disruption) (microorganisms; S. pneumoniae): S. pneumoniae (A)

PF-423 (AGKKERLLSFREQFLNKNKKK; Peptide with targeting and/or antimicrobial activity)
Target(s) (microorganisms bound by the targeting peptide) (bacteria): S. epidermidis; also recorded: M. luteus; also recorded: E. coli; also recorded: S. pneumoniae; also recorded: E. faecalis; also recorded: C. jeikeium
Organism, effect (morphology, biofilm and growth disruption) (microorganisms; S. pneumoniae): S. pneumoniae (H)

PF-C088 (DIANNILNSVSERLIIA; Peptide with targeting and/or antimicrobial activity)
Target(s) (microorganism bound by the targeting peptide) (bacteria): A. naeslundii; also recorded: F. nucleatum; also recorded: P. gingivalis; also recorded: S. mutans; also recorded: T. denticola
Organism, effect (morphology, biofilm and growth disruption) (microorganisms; F. nucleatum): F. nucleatum (H)
Organism, effect (morphology, biofilm and growth disruption) (microorganisms; P. gingivalis): P. gingivalis (R)
Organism, effect (morphology, biofilm and growth disruption) (microorganisms; S. mutans): S. mutans (I)

PF-598 (MKFMLEVRNKAISAYKEITRTQI; Peptide with targeting and/or antimicrobial activity)
Target(s) (microorganism bound by the targeting peptide) (bacteria): S. epidermidis and M. luteus and P. mirabilis and P. aeruginosa and C. albicans and MRSA and S. pneumoniae and C. jeikeium
Organism, effect (morphology, biofilm and growth disruption) (microorganisms; C. jejuni): C. jejuni (R)
Organism, effect (morphology, biofilm and growth disruption) (microorganisms; E. coli): E. coli (C)
Organism, effect (morphology, biofilm and growth disruption) (microorganisms; E. faecalis): E. faecalis (R)
Organism, effect (morphology, biofilm and growth disruption) (microorganisms; MRSA): MRSA (D)
Organism, effect (morphology, biofilm and growth disruption) (microorganisms; S. epidermidis): S. epidermidis (R)
Organism, effect (morphology, biofilm and growth disruption) (microorganisms; S. pneumoniae): S. pneumoniae (R)

MGIIAGIIKFIKGLIEKFTGK [PF-006]
Target(s) (bacteria; microorganism the targeting peptide binds, binding in aqueous buffers that varied with peptide solubility): S. epidermidis and M. luteus and E. coli and P. aeruginosa and MRSA and E. faecalis and C. jeikeium and C. jejuni
Organism, effect (microorganisms; B. subtilis): B. subtilis (I)
Organism, effect (microorganisms; C. jejuni): C. jejuni (D)
Organism, effect (microorganisms; M. luteus): M. luteus (A)
Organism, effect (microorganisms; MRSA): MRSA (I)
Organism, effect (microorganisms; S. epidermidis): S. epidermidis (D)
Organism, effect (microorganisms; S. pneumoniae): S. pneumoniae (R)

PF-585 (DYNHLLNVVQDWVNTN; Peptide with targeting and/or antimicrobial activity)
Target(s) (microorganisms bound by the targeting peptide) (bacteria): S. epidermidis and E. coli and C. albicans and MRSA and S. pneumoniae and C. jeikeium
Organism, effect (morphology, biofilm and growth disruption) (microorganisms; C. jejuni): C. jejuni (R)
Organism, effect (morphology, biofilm and growth disruption) (microorganisms; E. faecalis): E. faecalis (A)
Organism, effect (morphology, biofilm and growth disruption) (microorganisms; MRSA): MRSA (S)
Organism, effect (morphology, biofilm and growth disruption) (microorganisms; S. epidermidis): S. epidermidis (S)
Organism, effect (morphology, biofilm and growth disruption) (microorganisms; S. pneumoniae): S. pneumoniae (R)

PF-683 (chain 1 LWPVA; chain 2 LWPVA; Peptide with targeting and/or antimicrobial activity)
Target(s) (microorganism bound by the targeting peptide) (bacteria): Mycobacteria spp
Organism, effect (morphology, biofilm and growth disruption) (microorganisms; MRSA): MRSA (R)
Organism, effect (morphology, biofilm and growth disruption) (microorganisms; S. epidermidis): S. epidermidis (R)
Organism, effect (morphology, biofilm and growth disruption) (microorganisms; S. pneumoniae): S. pneumoniae (H)

PF-655 (chain 1 DAPCFDDQFGDLKCQMC; chain 2 DAPCFDDQFGDLKCQMC; Peptide with targeting and/or antimicrobial activity)
Target(s) (microorganism bound by the targeting peptide) (bacteria): M. smegmatis
Organism, effect (morphology, biofilm and growth disruption) (microorganisms; B. subtilis): B. subtilis (H)
Organism, effect (morphology, biofilm and growth disruption) (microorganisms; MRSA): MRSA (M)
Organism, effect (morphology, biofilm and growth disruption) (microorganisms; S. epidermidis): S. epidermidis (R)
Organism, effect (morphology, biofilm and growth disruption) (microorganisms; S. pneumoniae): S. pneumoniae (H)

PF-637 (chain 1 SRIKQDARSVRKYDRIGIFFYSFKSA; chain 2 SRIKQDARSVRKYDRIGIFFYSFKSA; Peptide with targeting and/or antimicrobial activity)
Target(s) (microorganism bound by the targeting peptide) (bacteria): S. epidermidis and P. aeruginosa and C. albicans and MRSA and S. pneumoniae and E. faecalis and C. jeikeium
Organism, effect (morphology, biofilm and growth disruption) (microorganisms; C. jeikeium): C. jeikeium (D)
Organism, effect (morphology, biofilm and growth disruption) (microorganisms; E. faecalis): E. faecalis (D)
Organism, effect (morphology, biofilm and growth disruption) (microorganisms; MRSA): MRSA (M)
Organism, effect (morphology, biofilm and growth disruption) (microorganisms; S. epidermidis): S. epidermidis (M)
Organism, effect (morphology, biofilm and growth disruption) (microorganisms; S. pneumoniae): S. pneumoniae (M)

PF-698 (chain 1 SSGRAGVKCRRPTGR; chain 2 SSGRAGVKCRRPTGR; Peptide with targeting and/or antimicrobial activity)
Target(s) (microorganism bound by the targeting peptide) (bacteria): Mycobacteria spp
Organism, effect (morphology, biofilm and growth disruption) (microorganisms; C. albicans): C. albicans (H)
Organism, effect (morphology, biofilm and growth disruption) (microorganisms; E. faecalis): E. faecalis (A)
Organism, effect (morphology, biofilm and growth disruption) (microorganisms; S. pneumoniae): S. pneumoniae (A)

PF-665 (chain 1 VLRVATAVGEVPTGL; chain 2 VLRVATAVGEVPTGL; Peptide with targeting and/or antimicrobial activity)
Target(s) (microorganism bound by the targeting peptide) (bacteria): Mycobacteria spp
Organism, effect (morphology, biofilm and growth disruption) (microorganisms; S. pneumoniae): S. pneumoniae (H)

PF-652 (chain 1 FLAPARPDLQAQRQALAQ; chain 2 FLAPARPDLQAQRQALAQ; Peptide with targeting and/or antimicrobial activity)
Target(s) (microorganism bound by the targeting peptide) (bacteria): Mycobacteria spp
Organism, effect (morphology, biofilm and growth disruption) (microorganisms; S. pneumoniae): S. pneumoniae (A)

PF-694 (chain 1 DLIRPLYSMSAPSVA; chain 2 DLIRPLYSMSAPSVA; Peptide with targeting and/or antimicrobial activity)
Target(s) (microorganism bound by the targeting peptide) (bacteria): Mycobacteria spp
Organism, effect (morphology, biofilm and growth disruption) (microorganisms; MRSA): MRSA (R)
Organism, effect (morphology, biofilm and growth disruption) (microorganisms; S. pneumoniae): S. pneumoniae (A)

PF-613 (ADEFAKL; Peptide with targeting and/or antimicrobial activity)
Target(s) (microorganism bound by the targeting peptide) (bacteria): C. jeikeium
Organism, effect (morphology, biofilm and growth disruption) (microorganisms; E. faecalis): E. faecalis (A)
Organism, effect (morphology, biofilm and growth disruption) (microorganisms; MRSA): MRSA (C)
Organism, effect (morphology, biofilm and growth disruption) (microorganisms; S. epidermidis): S. epidermidis (R)

PF-397 (VEDLMEDLNA; Peptide with targeting and/or antimicrobial activity)
Target(s) (microorganisms bound by the targeting peptide) (bacteria): S. epidermidis and MRSA and S. pneumoniae and E. faecalis and C. jejuni
Organism, effect (microorganisms; S. epidermidis): S. epidermidis (C)

NTNDLLQAFELMGLGMAGVFIVLGILYIVAELLIKIFPVNN [PF-C194]
Target(s) (microorganism bound by the targeting peptide) (bacteria): A. naeslundii; also recorded: F. nucleatum; also recorded: P. gingivalis; also recorded: S. mutans; also recorded: T. denticola
Organism, effect (morphology, biofilm and growth disruption) (microorganisms; F. nucleatum): F. nucleatum (T)
Organism, effect (morphology, biofilm and growth disruption) (microorganisms; P. gingivalis): P. gingivalis (T)
Organism, effect (morphology, biofilm and growth disruption) (microorganisms; S. mutans): S. mutans (F)

PF-661 (chain 1 PDEDIRRRAILPPAGPCRPMSPE; chain 2 PDEDIRRRAILPPAGPCRPMSPE; Peptide with targeting and/or antimicrobial activity)
Target(s) (microorganism bound by the targeting peptide) (bacteria): Mycobacteria spp
Organism, effect (morphology, biofilm and growth disruption) (microorganisms; MRSA): MRSA (R)

PF-704 (chain 1 APAARAAL; chain 2 APAARAAL; Peptide with targeting and/or antimicrobial activity)
Target(s) (microorganism bound by the targeting peptide) (bacteria): Mycobacteria spp
Organism, effect (morphology, biofilm and growth disruption) (microorganisms; S. pneumoniae): S. pneumoniae (C)

PF-647 (chain 1 GTFLGQKCAAATAS; chain 2 GTFLGQKCAAATAS; Peptide with targeting and/or antimicrobial activity)
Target(s) (microorganism bound by the targeting peptide) (bacteria): Mycobacteria spp
Organism, effect (morphology, biofilm and growth disruption) (microorganisms; C. albicans): C. albicans (B)
Organism, effect (morphology, biofilm and growth disruption) (microorganisms; S. pneumoniae): S. pneumoniae (R)

PF-270 (MYLTPYAWIAVGSIFAFSVTTIKIGDQNDEKQKSHKNDVHKR; Peptide with targeting and/or antimicrobial activity)
Target(s) (bacteria; [1]): S. epidermidis; also recorded: M. luteus; also recorded: P. aeruginosa
Organism, effect (microorganisms; M. luteus): M. luteus (H)
